Data from patent US5158969A, “Indole derivatives as potassium channel blockers” (NeuroSearch A/S, priority 1991, dated 1992).

What was measured:
[1] = system: BKCa channel; assay: Single channel patch-clamp, inside-out patches of bovine aortic smooth muscle cells; type: cell-based; details: 20 μM
Method: (§1) All electrophysiological experiments were performed with patch-clamp technique (Hamill et al., Pflugers Arch. 391, 85-100 (1981). The ion composition of the internal solution was (in mM) 4 NaCl, 140 KCl, 1 CaCl2, 1 MgCl2, 2 EGTA, 10 HEPES and the external solution contained 140 NaCl, 4 Kcl, 2 CaCl2, 1 MgCl2 and 10 HEPES.

[2] = system: BKCa channel; assay: Single channel patch-clamp in pancreatic β-cells; type: cell-based
Method: as §1

[3] = system: immobility of female NMRI mice; assay: Tail suspension test; type: in vivo; details: 30 min before test, 6 min suspension
Method: 1-(4-methoxyphenyl)-indole has been studied in the socalled tail suspension test as described by L. Steru et al., Prog. Neuro-Psychopharmacol. Biol. Psychiatry 11, 659-671 (1987). Female NMRI mice (20-25 g, 10 mice per dose) were suspended by the tail with adhesive tape for 6 min. The mice alternated between phases of activity (trying to escape) and immobility (despair). The duration of immobility was recorded manually. Saline, 1-(4-methoxyphenyl)-indole or desipramine were administered i.p. 30 min before the start of the test.

[4] = system: social recognition memory of adult male Wistar rats; assay: Social recognition model; type: in vivo, rat
Method: In short, adult male Wistar rats (350 g) were housed individually in normal transparent plexiglas cages. After a habituation period of at least 24 hours a juvenile male Wistar rat (25-30 days old) was introduced in the cage in a 5 min period (first exposure). A second exposure of the same juvenile rat for another 5 min period was performed either 5 min later or 120 min later. In one case, another juvenile rat was introduced 120 min after an exposure of a juvenile rat. The adult rat was administered either saline or different doses of 1-(4-methoxyphenyl)-indole i.p. 15 min before the first exposure of the juvenile rat.
In both sessions (1st and 2nd exposure period) the total duration of investigatory behaviour consisting of sniffing, nosing and grooming performed by the adult rat was noted.
The adult rat (n=10-20) used generally 100-110 sec investigating the juvenile rat on the first exposure. […] The memory seems basically to be based on recognition of urine odour.

| SMILES | block of the BKCa channel [1] | block of the BKCa channel [2] | duration of immobility ([3]; doses between 10 and 100 mg/kg i.p.) | investigatory behaviour on the second exposure with a new (unknown) juvenile rat ([4]; 30 mg/kg i.p. 15 min before first exposure, new juvenile rat) | investigatory behaviour on the first exposure ([4]; 7.5-30 mg/kg i.p. 15 min before first exposure) | investigatory behaviour on the second exposure of the same juvenile rat ([4]; 7.5-30 mg/kg i.p., second exposure 120 min later, same juvenile rat) | duration of immobility ([3]; doses between 1 and 30 mg/kg i.p.) |
| --- | --- | --- | --- | --- | --- | --- | --- |
| COc1ccc(-n2ccc3ccccc32)cc1 [1-(4-methoxyphenyl)-indole] | potently at 20 μM blocked the BKCa channel | potently blocked the BKCa channel | inhibited the immobility dose-dependently | normal investigatory behaviour was seen | did not interfere with the adult rats investigatory behaviour | significant decrease in investigatory behaviour |  |
| CNCCCN1c2ccccc2CCc2ccccc21 [Desipramine, reference compound] |  |  |  |  |  |  | reduced the immobility dose-dependently |
